Experimental data reported in US5972943A, “Pyridinecarboxamide derivatives” (Nisshin Flour Milling Co., Ltd., priority 1996, dated 1999).

What was measured:
[1] = Behavior suppressing action (general behaviors of mice); format: in vivo, ddY-strain mice; details: 10 mg/kg, tail vein; for Behavioral suppression: observed over one hour
Procedure: The effect of the present pyridinecarboxamide derivatives on general behaviors of mice was studied.
Using ddY-strain mice of 7 weeks old, test substance was administered at 100μ11/10 sec to the tail vein and behavior of the animal was observed over one hour. After the administration, sedative animal was evaluated as sedated, while animal with behavioral suppression was evaluated as suppressed.

hypoxic model of mice = assay: Cerebral protective action (anti-anoxia action), hypoxic model of mice, gasping duration after decapitation; format: in vivo, ddY-strain male mice; details: 1.0 mg/kg i.v., 30 minutes before decapitation
Procedure: Cerebral protective action of the pyridinecarboxamide derivatives of this invention (an anti-anoxia action) were studied using a hypoxic model of mice.
Using ddY-strain male mice of 6 weeks old, the test substance of Compound 1, Compound 10 or Compound 11 was intravenously administered to the tail vein at the dose of 1.0 mg/kg. After 30 minutes from the administration, animals were decapitated to measure a gasping duration. This measurement was made by two persons who had not been informed of the test substances and the measured values were averaged to obtain the data. Also, the test was carried out in the same manner as described above except that Comparative Compound 1 was administered instead of the test substances.
The action of each substance will be shown in Table 2, with the gasping time of Comparative Compound 1 being defined as 1.
It is believed that grasping after decapitation is controlled by the respiratory center and, if the nervous functions are maintained by the respiratory center, the gasping duration would be prolonged. […] In view of the foregoing, the pyridinecarboxamide derivatives of this invention can prolong the gasping duration and then are useful as a cerebral protective agent.

[2] = Behavior suppressing activity (background statement); format: in vivo; details: background / disclosure statement
[3] = tested on: hypoxia and anoxia models; details: Sakurai et al., Jpn. J. Pharmacol. 1993; cited from earlier work
[4] = tested on: cerebral edema, ischemic reperfusion model using SHR-SP; assay: Anti-cerebral edema action (ischemic reperfusion model using SHR-SP); format: in vivo, male SHR-SP (spontaneous hypertensive rats); details: 1 mg/kg i.v. twice; for Inhibitory rate of cerebral ischemia (cerebral edema): immediately after ischemia and immediately before reperfusion
Procedure: The pyridinecarboxamide derivatives of this invention were studied for the inhibitory action on cerebral edema with the model using SHR-SP (Spontaneous hypertensive rats which are vulnerable to cerebral hemorrhage).
Male SHR-SP of 15-17 weeks old were measured for the blood pressure one day before the testing and classified into groups. Both common carotid arteries were separated under pentobarbital anesthesia at 35 mg/kg and common carotid arteries were fastened by clamp to cause ischemia. After 2 hours, the clamp was removed from the common carotid artery to reperfuse. After a further 2 hours, the animal was decapitated and the cerebrum excised under ether anesthesia. The cerebrum was dried in an oven at 105° C. for 24 hours and the cerebral water content (%) was calculated. [formula]
Compound 1 and Comparative Compound 2 were intravenously administered twice, that is, immediately after the ischemia and immediately before the reperfusion at the dose of 1 mg/kg, respectively.

hippocampus CA1 cells = assay: Inhibitory rate of delayed neuronal death; format: in vivo, MON/Jms/Gbs-strain male jirds; details: 0.5 mg/kg, carotid artery, immediately after ischemia; jirds; 7 days
Procedure: MON/Jms/Gbs-strain male jirds (weighing 60-80 g) were fixed at the dorsal position under 1.5-2.0% halothane anesthesia and the common carotid artery was isolated. Ischemia was caused by fastening the common carotid artery with clamp for 3 minutes and then reperfused. After 7 days, the brain was excised under ether anesthesia and fixed with 10% formalin for 2 days and then tissue slices of the hippocampus were prepared. The hippocampus CA1 cells were stained using HE staining and the survival rate of the CA1 cells was evaluated.
Compound 1 was administered to the carotid artery at the dose of 0.5 mg/kg immediately after ischemia. Using as a control the case wherein the drug was not administered, inhibitory rate was calculated according to the following equation: [formula]

[5] = tested on: lipid peroxidation in rat brain homogenate; assay: Inhibitory action on lipid peroxidation in rat brain homogenate; format: biochemical, Wistar-strain male rats; details: 10^-4 M, 37° C., 15 minutes
Procedure: Inhibitory action on lipid peroxidation was studied in rat brain homogenate.
Wistar-strain male rats (weighing 230-300 g) were decapitated and the cerebrum was quickly excised. A 4 times volume of a solution of 50 mM phosphoric acid and […] NaCl (pH 7.4) was added and the mixture was homogenated and then centrifuged at 3000 rpm for 10 minutes. The supernatant thus obtained was prepared to give a protein level of 2 mg/ml.
Determination of lipid peroxide was carried out using TBA method (thiobarbituric acid). To the brain homogenate was added each of Compound 1, Compound 5, Compound 6, Compound 8, Compound 9, Compound 11 and Compound 14 as a test substance to give a final concentration of 10^-4 M, thereby initiating the reaction. After incubation at 37° C. for 15 minutes, the reaction was stopped in ice by adding a 35% perchloric acid solution. The reaction mixture was centrifuged at 4° C. and 1000 rpm for 5 minutes and to the supernatant thus obtained was added a 0.5% TBA solution. The mixture was boiled at 100° C. for 15 minutes. After cooling, absorbance was determined at 532 nm. 1,1,3,3-Tetraethoxypropane as a standard was subjected to the reaction in the same manner as above and an amount of lipid peroxide, that is, an amount of the malondialdehyde (MDA) produced was determined from the absorbance.
Inhibitory rate of lipid peroxidation was calculated according to the following equation: [formula]

[6] = tested on: cerebral edema model using polyvinyl acetate; assay: Anti-cerebral edema action (obstructive cerebral ischemia model using polyvinyl acetate); format: in vivo, Wistar-strain male rats; details: 1 mg/kg i.v., 5 minutes before polyvinyl acetate; rats
Procedure: Inhibiting action on cerebral ischemia was studied in an obstructive cerebral ischemia model using polyvinyl acetate.
The obstructive model was prepared as described below. (Hiroyoshi Nishi et al., Stroke 1989, 20:1236-1240)
Wistar-strain male rats weighing 200-350 g were used and fixed at the dorsal position under anesthesia of ether and then the left common carotid artery, internal carotid artery, external carotid artery were isolated. The external carotid artery was ligated, the pterylgopalatine artery was fastened with clamp and a cannula was inserted from the external carotid artery toward the branch between the internal carotid artery and the common carotid artery. 5 μl of a 3% polyvinyl acetate/52% ethanol solution in water was injected. After 30 seconds, the clamp was removed from the artery and then the wound was sutured. After 24 hours, animal was decapitated and the cerebrum was isolated, within 120 seconds from which wet weights of the left cerebrum and the right cerebrum were measured. The left and right cerebra were dried in an oven at 105° C. for 24 hours and then the dry weights were measured. A cerebral water content was calculated according to the following equation: [formula]
Compound 1 or Compound 9 was intravenously injected to the tail vein at the doses of 1.0 mg/kg and 3.0 mg/kg before 5 minutes from the administration of polyvinyl acetate.

[7] = known drug, background statement; cited from earlier work

Structure (SMILES) | Behavioral suppression [1] | General behaviors (result in words) [1] | Gasping duration (relative to Comparative Compound 1 defined as 1) (hypoxic model of mice) | Inhibitory rate of lipid peroxidation [5] | other results
CN1CCN(c2ccc(C(=O)NCCCCCCCCCCCO[N+](=O)[O-])cn2)CC1 [Comparative Compound 1, N-(11-nitroxy-1-undecanyl)-6-(4-methyl-1-piperazinyl)nicotinamide, reference compound] | Sedated | suppression of behavior being shown | 1 | – | Behavior suppressing activity [2]: observed to possess a behavior suppressing activity; Cerebral protective effect on the hypoxia and anoxia models [3]: could show a cerebral protective effect on the hypoxia and anoxia models
CN1CCN(c2ccc(C(=O)NCCCCCCCCCCCCO[N+](=O)[O-])cn2)CC1 [Comparative Compound 2, N-(12-nitroxy-1-dodecanyl)-6-(4-methyl-1-piperazinyl)nicotinamide, reference compound] | – | – | – | – | Anti-cerebral edema activity (result in words) [4]: made cerebral edema worse; Inhibitory rate of cerebral ischemia (cerebral edema) [4]: -90%
CN1CCN(c2ccc(C(=O)NCCCCCCCCCCCCCCO[N+](=O)[O-])cn2)CC1 [Compound 1, N-(14-Nitroxytetradecyl)-6-(4-methyl-1-piperazinyl)pyridine-3-carboxamide] | Non | No abnormalities were observed in general behaviors | 2.6 | 91% | Inhibitory rate (delayed neuronal death) (hippocampus CA1 cells): 47%; Anti-cerebral edema activity (result in words) [4]: potent anti-cerebral edema activity; Inhibitory rate of cerebral ischemia (cerebral edema) [4]: 63%; Inhibitory rate of cerebral edema [6]: 44.0%
O=C(NCCCCCCCCCCCCCCO[N+](=O)[O-])c1ccc(N2CCNCC2)nc1 [Compound 6, N-(14-Nitroxytetradecyl)-6-(1-piperazinyl)pyridine-3-carboxamide] | Non | No abnormalities were observed in general behaviors | – | 59% | –
CC(C)N1CCN(c2ccc(C(=O)NCCCCCCCCCCCCCCO[N+](=O)[O-])cn2)CC1 [Compound 8, N-(14-Nitroxytetradecyl)-6-(4-isopropyl-1-piperazinyl)pyridine-3-carboxamide] | Non | No abnormalities were observed in general behaviors | – | 70% | –
O=C(NCCCCCCCCCCCCCCCCCCO[N+](=O)[O-])c1ccc(N2CCNCC2)nc1 [Compound 14, N-(18-Nitroxyoctadecyl)-6-(1-piperazinyl)pyridine-3-carboxamide] | – | – | – | 75% | –
CCN(CC)Cc1nccn1-c1ccc([N+](=O)[O-])cc1C(=O)c1ccccc1Cl [Nizofenone] | – | – | – | – | Behavior suppressing activity as a side-effect [7]: behavior suppressing activity

Second part, led by results:

Behavioral suppression [1] | Structure (SMILES) | General behaviors (result in words) [1] | Gasping duration (relative to Comparative Compound 1 defined as 1) (hypoxic model of mice) | Inhibitory rate of lipid peroxidation [5] | other results
Non | CCN1CCN(c2ccc(C(=O)NCCCCCCCCCCCCCCO[N+](=O)[O-])cn2)CC1 [Compound 5, N-(14-Nitroxytetradecyl)-6-(4-ethyl-1-piperazinyl)pyridine-3-carboxamide] | No abnormalities were observed in general behaviors | – | 69% | –
Non | CCCN1CCN(c2ccc(C(=O)NCCCCCCCCCCCCCCO[N+](=O)[O-])cn2)CC1 [Compound 7, N-(14-Nitroxytetradecyl)-6-(4-propyl-1-piperazinyl)pyridine-3-carboxamide] | No abnormalities were observed in general behaviors | – | – | –
Non | CN1CCN(c2ccc(C(=O)NCCCCCCCCCCCCCCCCO[N+](=O)[O-])cn2)CC1 [Compound 9, N-(16-Nitroxyhexadecyl)-6-(4-methyl-1-piperazinyl)pyridine-3-carboxamide] | No abnormalities were observed in general behaviors | – | 72% | Inhibitory rate of cerebral edema [6]: 33.3%
Non | CCN1CCN(c2ccc(C(=O)NCCCCCCCCCCCCCCCCO[N+](=O)[O-])cn2)CC1 [Compound 10, N-(16-Nitroxyhexadecyl)-6-(4-ethyl-1-piperazinyl)pyridine-3-carboxamide] | No abnormalities were observed in general behaviors | 1.7 | – | –
Non | CC(C)N1CCN(c2ccc(C(=O)NCCCCCCCCCCCCCCCCO[N+](=O)[O-])cn2)CC1 [Compound 11, N-(16-Nitroxyhexadecyl)-6-(4-isopropyl-1-piperazinyl)pyridine-3-carboxamide] | No abnormalities were observed in general behaviors | 1.4 | 53% | –
Non | CN1CCN(c2ccc(C(=O)NCCCCCCCCCCCCCCCCCCO[N+](=O)[O-])cn2)CC1 [Compound 13, N-(18-Nitroxyoctadecyl)-6-(4-methyl-1-piperazinyl)pyridine-3-carboxamide] | No abnormalities were observed in general behaviors | – | – | –
